According to patent US11679168B2, “Caspase-3-triggered molecular self-assembling PET probes and uses thereof” (The Board of Trustees of the Leland Stanford Junior …, priority 2018, dated 2023):

Columns and labels:
[1] = Stability of [18F]-C-SNAT4 in human serum (HPLC); type: in vitro ADME; settings: 37° C., over 2 h incubation
Procedure: FIG. 10 illustrates serum stability of [^18F]-C-SNAT4 in human serum. [^18F]-C-SNAT4 was incubated in serum at 37° C. and analyzed by HPLC.
At 24 h post treatment, mixture tracer of [^19F]-C-SNAT4 was injected with [^18F]-C-SNAT4 (mixture ratio at 1:200) through the tail vein for PET imaging (FIG. 24A-24C). For treated animal, tumor uptake of mixture tracer [^18F]/[^19F]-C-SNAT4 and [^18F]-C-SNAT4 were 2.9±0.3% ID/cc and 1.7±0.1% ID/cc, respectively at 85 min post injection. There was 1.7-fold increase of radioactivity in the mixture-treated mice. Overall, the uptake of [^18F]-C-SNAT4 was increased both in radiation and drug-treated tumors. In contrast, the tumor uptake of [^18F]/[^19F]-C-SNAT4 (ratio at 1:200) and [^18F]/[^19F]-C-SNAT4 (ratio at 1:80) in untreated tumor was 0.5±0.2% ID/cc and 0.3±0.2% ID/cc, respectively at 85 min after injection (FIG. 25A-25C), followed by a rapid signal decay back to baseline within a few minutes. There were no changes compared to the uptake of [^18F]-C-SNAT4 (0.4±0.1% ID/cc). […] The sample was centrifuged at 13,400 g for 10 min and […] of the resultant supernatant was diluted with […] of water and analyzed on HPLC. % intact tracer was calculated as %=(peak area for tracer/total peak area on the HPLC chromatogram)×100.

[2] = Ex vivo biodistribution in H460 tumor-bearing mice; settings: 2 h post injection
Procedure: FIG. 20 illustrates biodistribution of [^18F]-C-SNAT4 in H460 tumor-bearing female nude mice. Mice were administered approximately 200 μCi [^18F]-C-SNAT4, animal were exsanguinated through the left ventricle and indicated tissues were excised at 2 hours post-injection in mice bearing naïve-tumor (black) or drug-treated tumor (gray). Data represent the mean±S.D. (n=4 animals per groups)
Biodistribution study: H460 or H1299 tumor-bearing female nude mice were administered approximately 7.4 MBq of [^18F]-C-SNAT4 via the tail vein (n=4-5 per group). Mice were maintained under anesthesia and warmed to 37° C. to replicate imaging conditions. At 90 min after [^18F]-C-SNAT4 injection, animals were sacrificed by exsanguination via cardiac puncture. For all animals, tumors were excised immediately upon death, weighed using pre-weighted tubes, and rapidly placed in 10% formalin (Fisher Scientific) for fixation. Tumor and tissue decay-corrected radioactivity was subsequently determined using a Cobra II Auto-Gamma counter (Packard Biosciences Co, UK.) Predefined 1.85 MBq (50 μCi) standards (50 μl) were also counter for data normalization to injected dose. Data were expressed as percent injected dose per gram of tissue (% ID/g).

H460 tumor = test: PET/CT imaging of H460 tumor-bearing mice; type: in vivo
Procedure: (§1) FIGS. 4A and 4D illustrate representative 55- to 60-min axial and sagittal fused PET/CT images. Nude mice received approximately 200 μCi of [18F]-C-SNAT4 via tail vein injection, with PET/CT images acquired at 55 to 60 min after injection. Arrowheads indicate the tumor, identified from the CT images. H460 and H1299 tumor bearing mice were naïve, or 24 h following last dose of cisplatin treatment (Low dose: 3 mg/kg every other day for three times; high dose: 9 mg/kg every other day for three times).
(§2) Animal model and probe administration: For subcutaneous tumor models, H460 or H1299 (2×10^6 cells in 100 μl of PBS) were injection subcutaneously on the back of female nu/nu nude mice (aged 6 to 8 weeks; Charles River Laboratories). Tumor dimensions were measured periodically using a caliper (by the same researcher), with tumor volumes calculated by the following equation: volume=a×b×c/2, where a, b, and c represent three orthogonal axis of the tumor. Treatment-response analysis was performed 24 h after drug treatment. For all other experiments, animals were culled 26 h after therapy and tissues excised for analysis. For chemotherapy mouse model, tumors were grown to about 150 mm^3, and then treatment that consisted of cisplatin (Sigma-Aldrich; Low dose: 3 mg/kg; high dose: 9 mg/kg) or saline was initiated through intravenous administration, every other day for three times. Total mouse body weight and tumor size were measured every other day. Treat or left untreated. For radiotherapy mouse model, treatment consisted of two fractions of 5 Gy or 2 Gy dose of radiation therapy delivered with a single 225 kV beam using the Kimtron IC 225 irradiator (Kimtron Medical, CT, USA).
(§3) Small-animal PET/CT imaging and analysis: PET/CT imaging was carried out on a docked Siemens Inveon PET/CT scanner (matrix size, 128×128×159; CT attenuation-corrected; non-scatter corrected) (Siemens Medical Solutions USA) following a bolus intravenous injection of approximately 200 μCi of [^18F]-C-SNAT4 into tumor-bearing mice (n=56, 3-4 mice per group). Dynamic scans were acquired in list mode format over 90 min, and sorted into 22 times of frames, 0.5-mm sinogram bins for image reconstruction (4×15 s, 4×60 s, 11×300 s, 3×600 s). Mice were anesthetized with 2% isoflurane near the center of the FOV to ensure the highest image resolution and sensitivity. Iterative reconstruction was performed using 3D ordered-subsets expectation maximization (3D-OSEM) followed by fast maximum a posteriori (fast MAP) with the following parameters: MAP OSEM iterations, 2; MAP subsets, 16; MAP iterations, 18. Siemens Inveon Research Workplace software v.4.0 was used for visualization of radiotracer uptake in the tumor, to define the three-dimensional (3D) volumes of interest (VOI) and for 3D-visualisation to create volume rendering technique (VRT) images. The relative tumor or organ radioactivity concentrations were from mean pixel values within the multiple ROI volumes. The radioactivity concentration within organs was obtained from mean pixel values with in the VOI and converted to counts per milliliter per min and then divided by the injected dose (ID) to obtain an imaging VOI-derived percentage of the injected radioactive dose per cubic centimeter of tissue (% ID/cc).

H1299 tumor = test: PET/CT imaging of H1299 tumor-bearing mice; type: in vivo; settings: for radioactivity retention in tumor: 85 min post-injection
Procedure: as §1, §2, §3

[3] = H460, 2 Gy-treated tumor, [18F]-C-SNAT4 only

**Q.** For CCSSCC(NC(=O)C(CC(=O)O)NC(=O)C(NC(=O)C(CCC(=O)O)NC(=O)C(CC(=O)O)NC(C)=O)C(C)C)C(=O)NCC(=O)NC(Cc1cn(CCOCCOCCOCC[18F])nn1)C(=O)NCc1ccc(C(=O)NCCCOc2cnc(C#N)nc2)cc1 (stereo not drawn) [[^18F]-C-SNAT4], which “percentage of [18F]-C-SNAT4 remained” value [1] is on record?
**A.** 77.5%

**Q.** What about the clearance route [2] of the same compound?
**A.** predominantly renal clearance

**Q.** And the “AUC of time activity curve” value (H460 tumor; [3])?
**A.** 123.6±30.9 % ID min/cc

**Q.** And the tumor uptake (H460 tumor; [3])?
**A.** 1.2±0.3 % ID/cc

**Q.** What about the “AUC of time activity curve” value (H460 tumor; H460, 5 Gy-treated, hot tracer only, t=0 to 85 min) of the same compound?
**A.** 279.4±16.6 % ID min/cc

**Q.** What about the tumor uptake (H460 tumor; H460, high dose cisplatin (9 mg/kg x3) treated, 85 min post-injection) of the same compound?
**A.** 1.7±0.1 % ID/cc

**Q.** And the “AUC of time activity curve” value (H460 tumor; H460, high dose cisplatin treated, t=0 to 85 min)?
**A.** 148.9±10.1 % ID min/cc

**Q.** And the tumor uptake (H460 tumor; H460, low dose cisplatin (3 mg/kg x3) treated, 85 min post-injection)?
**A.** 1.2±0.1 % ID/cc

**Q.** What about the “AUC of time activity curve” value (H460 tumor; H460, low dose cisplatin treated, t=0 to 85 min) of the same compound?
**A.** 116.7±6.0 % ID min/cc

**Q.** And the “AUC of time activity curve” value (H460 tumor; H460, naive tumor, t=0 to 85 min)?
**A.** 67.5±12.0 % ID min/cc

**Q.** What about the tumor uptake (H460 tumor; H460, naïve animals, 85 min post-injection) of the same compound?
**A.** 0.7±0.11 % ID/cc

**Q.** And the “AUC of time activity curve” value (H460 tumor; H460, naïve tumors (2 Gy experiment))?
**A.** 92.1±20.9 % ID min/cc

**Q.** What about the tumor uptake (H460 tumor; H460, two fractions of 5 Gy, hot tracer only, 85 min post injection) of the same compound?
**A.** 1.0±0.3 % ID/cc

**Q.** And the tumor uptake (H460 tumor; H460, untreated tumor (2 Gy experiment))?
**A.** 0.8±0.1 % ID/cc

**Q.** And the tumor uptake (H460 tumor; H460, untreated tumor, hot tracer (mixture comparison), 85 min)?
**A.** 0.4±0.1 % ID/cc

**Q.** And the “AUC of time activity curve” value (H1299 tumor; H1299, high doses cisplatin)?
**A.** 64.2±27.8 % ID min/cc

**Q.** What about the “radioactivity retention in tumor” value (H1299 tumor; H1299, high doses cisplatin) of the same compound?
**A.** 0.5±0.3 % ID/cc

**Q.** And the “AUC of time activity curve” value (H1299 tumor; H1299, low doses cisplatin)?
**A.** 66.0±6.8 % ID min/cc

**Q.** What about the “radioactivity retention in tumor” value (H1299 tumor; H1299, low doses cisplatin) of the same compound?
**A.** 0.4±0.2 % ID/cc

**Q.** What about the “AUC of time activity curve” value (H1299 tumor; H1299, saline) of the same compound?
**A.** 41.2±25.4 % ID min/cc

**Q.** And the “radioactivity retention in tumor” value (H1299 tumor; H1299, saline)?
**A.** 0.4±0.1 % ID/cc
